Experiment: in vitro
Details: human, hela cells, % viability

Structure (SMILES) | viability at 28.5 h, 10 µM [%]
CC(=O)Nc1cccc(-c2nccnc2NCC2CC2)c1 [CBK037962] | 90.4
OCc1ccccc1-c1cn2ccnc2c(N[C@@H]2CCN(Cc3ccccc3)C2)n1 [CBK037969] | 104
CC(=O)Nc1ccc(NC(=O)c2cnc(-c3ccc(F)cc3)c(-c3ccco3)c2)cc1 [CBK037977] | 98.8
CC(=O)c1ccc(-c2nccnc2NCc2ccc(C(F)(F)F)cc2)s1 [CBK037983] | 99.2
CC(C)[C@H](CO)Nc1nccnc1-c1ccccc1F [CBK037987] | 106
COc1ncc(-c2nccnc2NCc2cccc(Cl)c2)c(OC)n1 [CBK037990] | 90
CC(=O)Nc1ccc(Nc2nc(-c3ccc(O)cc3)cn3ccnc23)cc1 [CBK037992] | 94.8
COc1cccc(CNc2nccnc2-c2ccccc2F)c1OC [CBK037993] | 98.1
CN(Cc1ccccc1)c1nccnc1-c1ccc(F)c(Cl)c1 [CBK037997] | 107
OCc1ccccc1-c1cn2ccnc2c(Nc2ccccc2)n1 [CBK037999] | 108
CCCC/C=C/c1nccnc1NCCCO [CBK038006] | 102
COCCNc1nccnc1-c1ccsc1 [CBK038008] | 95.4
CN1CCCN(c2nccnc2-c2ccccc2CO)CC1 [CBK038014] | 106
COc1cccc(OC)c1-c1cn2ccnc2c(NC2CC2)n1 [CBK038020] | 104
CCCC/C=C/c1cn2ccnc2c(N2CCOCC2)n1 [CBK038031] | 100
COc1cc(Nc2nc(-c3cccc(OC(F)(F)F)c3)cn3ccnc23)cc(OC)c1OC [CBK038036] | 101
OCC1CCCN1c1nccnc1-c1ccccc1F (stereo not shown) [CBK038037] | 104
O=C(O)c1cccc(-c2nccnc2NCC2CC2)c1 [CBK038043] | 95.5
COCCNc1nccnc1-c1ccccc1F [CBK038044] | 97.6
CN1CCN(c2nc(-c3ccco3)cn3ccnc23)CC1 [CBK038045] | 83.7
OCc1ccccc1-c1nccnc1NCc1ccc2c(c1)OCO2 [CBK038046] | 95.7
c1ccc2c(-c3cn4ccnc4c(NC4CCOCC4)n3)cccc2c1 [CBK038047] | 89.9
COc1ccc(-c2nccnc2NCC2CC2)cc1 [CBK038048] | 95.7

Structure (SMILES) | viability at 28.5 h, 10 µM [%]
COc1ccc(C(C)C)cc1-c1cn2ccnc2c(Nc2cccc(OC(F)(F)C(F)F)c2)n1 [CBK038049] | 95.9
CN1CCN(c2nccnc2-c2ccco2)CC1 [CBK038050] | 86.7
O=C(O)c1cccc(-c2cn3ccnc3c(N3CCOCC3)n2)c1 [CBK038053] | 84
Clc1ccccc1-c1nccnc1NCCc1ccncc1 [CBK038055] | 98.1
c1coc(-c2nccnc2NCc2ccncc2)c1 [CBK038059] | 105
COc1cc(CNc2nccnc2-c2cccnc2)cc(OC)c1 [CBK038061] | 105
COc1cc(-c2nccnc2NCc2ccc(OC(F)(F)F)cc2)cc(OC)c1OC [CBK038063] | 117
COc1ccc(-c2cc(C(=O)Nc3cccc(C(=O)O)c3)cnc2-c2ccc(F)cc2)cn1 [CBK038064] | 91.3
CS(=O)(=O)CCNC(=O)c1cnc(-c2ccc(F)cc2)c(-c2cccnc2)c1 [CBK038066] | 88
CN(Cc1ccccc1)c1nccnc1-c1ccc(CO)cc1 [CBK038067] | 101
COc1ncc(-c2nccnc2NCCc2ccncc2)c(OC)n1 [CBK038074] | 96.7
Oc1cccc(-c2cn3ccnc3c(NC3CC3)n2)c1 [CBK038076] | 101
COc1ccccc1-c1nccnc1N[C@H](C)c1ccccc1 [CBK038083] | 107
c1coc(-c2nccnc2NCCCN2CCOCC2)c1 [CBK038086] | 96.8
Fc1ccccc1-c1nccnc1NCc1cccs1 [CBK038088] | 106
COc1cc(Nc2nc(-c3cccc(NC(C)=O)c3)cn3ccnc23)cc(OC)c1OC [CBK038093] | 99.7
Nc1nnc(C(F)(F)F)s1 [CBK038099] | 119
CCCNC(=O)Cc1sccc1NS(=O)(=O)c1ccc(C)cc1 [CBK038118] | 83
CS(=O)(=O)Nc1ccc(CC#N)cc1 [CBK038145] | 114
CN1C(=O)c2ccc(NS(C)(=O)=O)cc2C1=O [CBK038158] | 104
COc1ccc([C@@]23CC[C@@H](NC(=O)Nc4cccc(Br)c4)C[C@@H]2N(C)CC3)cc1OC [CBK038225T] | 91.4
CC(=O)Oc1cccc(C(=O)O)c1C [CBK038235] | 87.7
COc1ccccc1N1CCN(c2nccc3sc(S(=O)(=O)NC4CCC4)cc23)CC1 [CBK038248C] | 87.7

Structure (SMILES) | viability at 28.5 h, 10 µM [%]
CCCCCCc1ccc(NS(=O)(=O)c2cc3c(NCCN(C)C)nccc3s2)cc1 [CBK038253C] | 100
COc1ccccc1N1CCN(c2nccc3sc(S(=O)(=O)NCc4ccc(C(F)(F)F)c(F)c4)cc23)CC1 [CBK038270C] | 93.8
CCCCN1CCC(CNc2nccc3sc(S(=O)(=O)NC4CCC4)cc23)CC1 [CBK038275C] | 95.9
CC(O)C(=O)NS(=O)(=O)c1ccccc1 (stereo not shown) [CBK038300] | 104
CC(=O)c1sccc1NS(=O)(=O)c1ccccc1 [CBK038384] | 92.5
Cc1ccc(F)c(NS(=O)(=O)Cc2ccccc2)c1 [CBK038438] | 111
O=S(=O)(c1cccc2nsnc12)N1CCCN(Cc2ccsc2)CC1 [CBK038570] | 105
CC1(C)COC(=O)N1C1CCN(C(=O)c2cncc(Br)c2)CC1 [CBK038781] | 81.6
Fc1ccc(C2(CCCN3CCN(c4ccncc4)CC3)OCCO2)cc1 [CBK038887] | 111
Cc1ccc(S(=O)(=O)Nc2cccc(C(=O)O)c2)cc1 [CBK038891] | 84.1
Cc1noc(C)c1S(=O)(=O)Nc1cccc(C(=O)O)c1 [CBK038902] | 102
COc1ccc(/C=C(\C)C(=O)Nc2ccc(N3CCNCC3)c3ccccc23)cc1OC [CBK038913T] | 92.4
Cc1onc(-c2ccccc2)c1C(=O)Nc1ccccc1N1CCCNCC1 [CBK038929T] | 96.9
COc1ccc(/C=C(\C)C(=O)Nc2cc3ccccc3c(N3CCNCC3)n2)cc1OC [CBK038937T] | 82.1
Cc1oc(-c2ccccc2)cc1C(=O)Nc1ccccc1N1CCCNCC1 [CBK038940T] | 83.5
Cc1onc(-c2ccccc2)c1C(=O)Nc1ccc(N2CCNCC2)c2ccccc12 [CBK038942T] | 87
O=C(Nc1ccc(N2CCNCC2)c2ccccc12)c1coc2c1C(=O)CCC2 [CBK038946T] | 81.5
Cc1ccc(S(=O)(=O)Nc2cccc(C(=O)N3CCN(C)CC3)c2)cc1[N+](=O)[O-] [CBK038976] | 89.5
O=C(Nc1ccc(F)cc1)c1cccc(NS(=O)(=O)c2cc(Cl)sc2Cl)c1 [CBK038980] | 95.8
COc1ccc(Br)cc1S(=O)(=O)Nc1cccc(C(=O)Nc2ccc(F)cc2)c1 [CBK038981] | 75.4
COc1ccc(S(=O)(=O)Nc2cccc(C(=O)Nc3ccc(F)cc3)c2)cc1OC [CBK038982] | 71.7
Cc1c(Cl)cccc1S(=O)(=O)Nc1cccc(C(=O)Nc2ccc(F)cc2)c1 [CBK038983] | 99.3
O=C(c1cccc(NS(=O)(=O)Cc2ccccc2)c1)N1CCOCC1 [CBK038991] | 91

Structure (SMILES) | viability at 28.5 h, 10 µM [%]
O=C(c1cccc(NS(=O)(=O)c2cc(F)c(Br)cc2F)c1)N1CCOCC1 [CBK039007] | 86.7
COc1ccc(S(=O)(=O)Nc2cccc(C(=O)N3CCOCC3)c2)cc1OC [CBK039010] | 82.7
CCCc1ccc(S(=O)(=O)Nc2cccc(C(=O)N3CCN(C)CC3)c2)cc1 [CBK039034] | 122
COC(=O)c1ccsc1NS(=O)(=O)c1ccc(F)cc1 [CBK039060] | 89.7
COC(=O)c1ccsc1NS(=O)(=O)c1ccc(C)c([N+](=O)[O-])c1 [CBK039061] | 92.2
COC(=O)c1ccsc1NS(=O)(=O)c1cc(Cl)sc1Cl [CBK039062] | 88.2
COC(=O)c1ccsc1NS(=O)(=O)c1ccc(Oc2ccccc2)cc1 [CBK039064] | 108
COC(=O)c1ccsc1NS(=O)(=O)c1cc(Br)ccc1OC [CBK039065] | 86.8
COC(=O)c1ccsc1NS(=O)(=O)c1cc(F)c(Br)cc1F [CBK039068] | 96.5
O=S(=O)(Nc1cccc(C(F)(F)F)c1)c1cc2c(N3CCNCC3)nccc2s1 [CBK039085C] | 103
Cc1cc2cc(F)ccc2n1CCCN1CCN(c2ccncc2)CC1 [CBK039119G] | 116
Nc1nnc(C2CCCCC2)s1 [CBK039123] | 84.5
O=S(=O)(Cc1cccc(C(F)(F)F)c1)c1csc2ccnc(N3CCNCC3)c12 [CBK039166C] | 92
CC(C)N(C)CCOc1ncccc1OCCO [CBK039171] | 104
Cn1c(-c2ccc(CN3CCCC3)cc2)nc2onc(-c3ccccc3)c2c1=O [CBK039188C] | 95.2
Cc1ccc(C(=O)N2CN(C(=O)CN3CCOCC3)CC(C)(C)C2)cc1 [CBK039190] | 105
Nc1ccc2ccc(Cl)nc2n1 [CBK039198] | 113
COc1cccc2c3c([nH]c12)C1(CCCN(CCc2ccc(F)cc2)C1)NCC3 (stereo not shown) [CBK039251] | 97.9
Cc1cccc2c3c([nH]c12)C1(CCCN(Cc2ccc(F)cc2Cl)C1)NCC3 (stereo not shown) [CBK039339] | 90
COc1ccc2[nH]c3c(c2c1)CCNC31CCCN(Cc2ccc(OC(F)(F)F)cc2)C1 (stereo not shown) [CBK039387] | 113
Cc1ccc2c(c1)CC(=O)NC21CCN(Cc2cccc(Br)c2)CC1 [CBK039392] | 94.7
O=CN1CCc2c([nH]c3ccccc23)C12CCCN(CCOc1ccccc1)C2 (stereo not shown) [CBK039412] | 93.3
